# Experimental data: patent publication US5530126A, “Process for the preparation of substituted 6-(pyrazol-3yl)-1,4-benzoxazin-3-ones” (Monsanto Company, priority 1994, dated 1996)
# How the values were obtained:
# Type in all cases: in vivo
# [1] = system: Wild buckwheat; assay: Post-emergence herbicide test; conditions: Fallopia convolvulus, read-out: % plant inhibition (Wibw); for inhibition at 11210 g/ha: 11.21 kg/ha; for inhibition at 1120 g/ha: 1.12 kg/ha
# Outline: (§1)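 Foliar spray trial in greenhouse pans: two- to three-week-old plants treated at 200 gallons/acre by atomizer, spray containing about 0.4% emulsifier. Percent inhibition compared with untreated controls was recorded around day 11.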
# [2] = system: Seedling johnsongrass; assay: Post-emergence herbicide test; conditions: Sorghum halepense, read-out: % plant inhibition (Sejg); for inhibition at 11210 g/ha: 11.21 kg/ha; for inhibition at 1120 g/ha: 1.12 kg/ha
# Outline: as §1
# [3] = system: Downy Brome; assay: Post-emergence herbicide test; conditions: Bromus tectorum, read-out: % plant inhibition (Dobr); for inhibition at 11210 g/ha: 11.21 kg/ha; for inhibition at 1120 g/ha: 1.12 kg/ha
# Outline: as §1
# [4] = system: Barnyardgrass; assay: Post-emergence herbicide test; conditions: Echinochloa crus-galli, read-out: % plant inhibition (Bygr); for inhibition at 11210 g/ha: 11.21 kg/ha; for inhibition at 1120 g/ha: 1.12 kg/ha
# Outline: as §1
# [5] = system: Yellow nutsedge; assay: Post-emergence herbicide test; conditions: Cyperus, read-out: % plant inhibition (Yens); for inhibition at 11210 g/ha: 11.21 kg/ha; for inhibition at 1120 g/ha: 1.12 kg/ha
# Outline: as §1
# [6] = system: Velvetleaf; assay: Post-emergence herbicide test; conditions: Abutilon theophrasti, read-out: % plant inhibition (Vele); for inhibition at 11210 g/ha: 11.21 kg/ha; for inhibition at 1120 g/ha: 1.12 kg/ha
# Outline: as §1
# [7] = system: Indian Mustard; assay: Post-emergence herbicide test; conditions: Brassica juncea, read-out: % plant inhibition (Inmu); for inhibition at 11210 g/ha: 11.21 kg/ha; for inhibition at 1120 g/ha: 1.12 kg/ha
# Outline: as §1
# [8] = system: Morningglory; assay: Post-emergence herbicide test; conditions: Ipomoea, read-out: % plant inhibition (Mogl); for inhibition at 11210 g/ha: 11.21 kg/ha; for inhibition at 1120 g/ha: 1.12 kg/ha
# Outline: as §1
# [9] = system: Annual bluegrass; assay: Post-emergence herbicide test; conditions: read-out: % plant inhibition (Anbg); for inhibition at 11210 g/ha: 11.21 kg/ha; for inhibition at 1120 g/ha: 1.12 kg/ha
# Outline: as §1
# [10] = system: Cocklebur; assay: Post-emergence herbicide test; conditions: Xanthium strumarium, read-out: % plant inhibition (Cobu); for inhibition at 11210 g/ha: 11.21 kg/ha; for inhibition at 1120 g/ha: 1.12 kg/ha
# Outline: as §1
# [11] = system: Wild buckwheat; assay: Pre-emergence herbicide test; conditions: Fallopia convolvulus, read-out: % plant inhibition (Wibw); for inhibition at 11210 g/ha: 11.21 kg/ha; for inhibition at 1120 g/ha: 1.12 kg/ha
# Outline: (§2)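 Seeds or propagules placed on compacted topsoil, treated directly with a known amount of active ingredient in organic solvent or water, then covered with untreated soil. Pans kept in greenhouse, sub-irrigated; % inhibition scored about 10–14 days (usually 11) after seeding.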
# [12] = system: Seedling johnsongrass; assay: Pre-emergence herbicide test; conditions: Sorghum halepense, read-out: % plant inhibition (Sejg); for inhibition at 11210 g/ha: 11.21 kg/ha; for inhibition at 1120 g/ha: 1.12 kg/ha
# Outline: as §2
# [13] = system: Downy Brome; assay: Pre-emergence herbicide test; conditions: Bromus tectorum, read-out: % plant inhibition (Dobr); for inhibition at 11210 g/ha: 11.21 kg/ha; for inhibition at 1120 g/ha: 1.12 kg/ha
# Outline: as §2
# [14] = system: Barnyardgrass; assay: Pre-emergence herbicide test; conditions: Echinochloa crus-galli, read-out: % plant inhibition (Bygr); for inhibition at 11210 g/ha: 11.21 kg/ha; for inhibition at 1120 g/ha: 1.12 kg/ha
# Outline: as §2
# [15] = system: Yellow nutsedge; assay: Pre-emergence herbicide test; conditions: Cyperus, read-out: % plant inhibition (Yens); for inhibition at 11210 g/ha: 11.21 kg/ha; for inhibition at 1120 g/ha: 1.12 kg/ha
# Outline: as §2
# [16] = system: Velvetleaf; assay: Pre-emergence herbicide test; conditions: Abutilon theophrasti, read-out: % plant inhibition (Vele); for inhibition at 11210 g/ha: 11.21 kg/ha; for inhibition at 1120 g/ha: 1.12 kg/ha
# Outline: as §2
# [17] = system: Indian Mustard; assay: Pre-emergence herbicide test; conditions: Brassica juncea, read-out: % plant inhibition (Inmu); for inhibition at 11210 g/ha: 11.21 kg/ha; for inhibition at 1120 g/ha: 1.12 kg/ha
# Outline: as §2
# [18] = system: Morningglory; assay: Pre-emergence herbicide test; conditions: Ipomoea, read-out: % plant inhibition (Mogl); for inhibition at 11210 g/ha: 11.21 kg/ha; for inhibition at 1120 g/ha: 1.12 kg/ha
# Outline: as §2
# [19] = system: Annual bluegrass; assay: Pre-emergence herbicide test; conditions: read-out: % plant inhibition (Anbg); for inhibition at 11210 g/ha: 11.21 kg/ha; for inhibition at 1120 g/ha: 1.12 kg/ha
# Outline: as §2
# [20] = system: Cocklebur; assay: Pre-emergence herbicide test; conditions: Xanthium strumarium, read-out: % plant inhibition (Cobu); for inhibition at 11210 g/ha: 11.21 kg/ha; for inhibition at 1120 g/ha: 1.12 kg/ha
# Outline: as §2
smiles,measurement,setting,value
Cc1cc(-c2c(Cl)c(C(F)(F)F)nn2C)c(F)cc1Cl [Compound 63],inhibition at 11210 g/ha,[1],100%
same,inhibition at 11210 g/ha,[2],70%
same,inhibition at 11210 g/ha,[3],20%
same,inhibition at 11210 g/ha,[4],20%
same,inhibition at 11210 g/ha,[5],0%
same,inhibition at 11210 g/ha,[6],100%
same,inhibition at 11210 g/ha,[7],40%
same,inhibition at 11210 g/ha,[8],100%
same,inhibition at 11210 g/ha,[9],20%
same,inhibition at 11210 g/ha,[10],0%
same,inhibition at 11210 g/ha,[11],100%
same,inhibition at 11210 g/ha,[12],100%
same,inhibition at 11210 g/ha,[13],100%
same,inhibition at 11210 g/ha,[14],100%
same,inhibition at 11210 g/ha,[15],0%
same,inhibition at 11210 g/ha,[16],100%
same,inhibition at 11210 g/ha,[17],100%
same,inhibition at 11210 g/ha,[18],100%
same,inhibition at 11210 g/ha,[19],100%
same,inhibition at 11210 g/ha,[20],60%
CC(O)c1cc(-c2nn(C)c(C(F)(F)F)c2Cl)c(F)cc1Cl (stereo not shown) [Compound 107],inhibition at 1120 g/ha,[1],90%
same,inhibition at 1120 g/ha,[2],20%
same,inhibition at 1120 g/ha,[3],0%
same,inhibition at 1120 g/ha,[4],30%
same,inhibition at 1120 g/ha,[5],10%
same,inhibition at 1120 g/ha,[6],90%
same,inhibition at 1120 g/ha,[7],40%
same,inhibition at 1120 g/ha,[8],50%
same,inhibition at 1120 g/ha,[9],0%
same,inhibition at 1120 g/ha,[10],50%
same,inhibition at 1120 g/ha,[11],80%
same,inhibition at 1120 g/ha,[12],40%
same,inhibition at 1120 g/ha,[13],30%
same,inhibition at 1120 g/ha,[14],80%
same,inhibition at 1120 g/ha,[15],0%
same,inhibition at 1120 g/ha,[16],90%
same,inhibition at 1120 g/ha,[17],80%
same,inhibition at 1120 g/ha,[18],100%
same,inhibition at 1120 g/ha,[19],20%
same,inhibition at 1120 g/ha,[20],20%
Cc1cc(-c2nn(C)c(C(F)(F)F)c2Cl)c(F)cc1Cl [Compound 124],inhibition at 11210 g/ha,[1],100%
same,inhibition at 11210 g/ha,[2],100%
same,inhibition at 11210 g/ha,[3],50%
same,inhibition at 11210 g/ha,[4],90%
same,inhibition at 11210 g/ha,[5],20%
same,inhibition at 11210 g/ha,[6],100%
same,inhibition at 11210 g/ha,[7],90%
same,inhibition at 11210 g/ha,[8],100%
same,inhibition at 11210 g/ha,[9],70%
same,inhibition at 11210 g/ha,[10],70%
same,inhibition at 11210 g/ha,[11],100%
same,inhibition at 11210 g/ha,[12],100%
same,inhibition at 11210 g/ha,[13],100%
same,inhibition at 11210 g/ha,[14],100%
same,inhibition at 11210 g/ha,[15],20%
same,inhibition at 11210 g/ha,[16],100%
same,inhibition at 11210 g/ha,[17],100%
same,inhibition at 11210 g/ha,[18],100%
same,inhibition at 11210 g/ha,[19],100%
same,inhibition at 11210 g/ha,[20],100%
"Cn1nc(-c2cc(OCC(=O)O)c(Cl)cc2F)c(Cl)c1C(F)(F)F [Compound 291, (2-Chloro-5-(4-chloro-1-methyl-5-(trifluoromethyl)-1H-pyrazol-3-yl)-4-fluorophenoxy)-acetic acid]",inhibition at 1120 g/ha,[1],90%
same,inhibition at 1120 g/ha,[2],30%
same,inhibition at 1120 g/ha,[3],20%
same,inhibition at 1120 g/ha,[4],20%
same,inhibition at 1120 g/ha,[5],30%
same,inhibition at 1120 g/ha,[6],100%
same,inhibition at 1120 g/ha,[7],40%
same,inhibition at 1120 g/ha,[8],100%
same,inhibition at 1120 g/ha,[9],0%
same,inhibition at 1120 g/ha,[10],100%
same,inhibition at 1120 g/ha,[11],100%
same,inhibition at 1120 g/ha,[12],40%
same,inhibition at 1120 g/ha,[13],20%
same,inhibition at 1120 g/ha,[14],20%
same,inhibition at 1120 g/ha,[15],30%
same,inhibition at 1120 g/ha,[16],100%
same,inhibition at 1120 g/ha,[17],40%
same,inhibition at 1120 g/ha,[18],100%
same,inhibition at 1120 g/ha,[19],30%
same,inhibition at 1120 g/ha,[20],100%
C#CCOc1cc(-c2nn(C)c(C(F)(F)Cl)c2Cl)c(F)cc1Cl [Compound 303],inhibition at 11210 g/ha,[1],100%
same,inhibition at 11210 g/ha,[2],100%
same,inhibition at 11210 g/ha,[3],100%
same,inhibition at 11210 g/ha,[4],100%
same,inhibition at 11210 g/ha,[5],70%
same,inhibition at 11210 g/ha,[6],100%
same,inhibition at 11210 g/ha,[7],100%
same,inhibition at 11210 g/ha,[8],100%
same,inhibition at 11210 g/ha,[9],100%
same,inhibition at 11210 g/ha,[10],100%
same,inhibition at 11210 g/ha,[11],100%
same,inhibition at 11210 g/ha,[12],100%
same,inhibition at 11210 g/ha,[13],100%
same,inhibition at 11210 g/ha,[14],100%
same,inhibition at 11210 g/ha,[15],0%
same,inhibition at 11210 g/ha,[16],100%
same,inhibition at 11210 g/ha,[17],100%
same,inhibition at 11210 g/ha,[18],100%
same,inhibition at 11210 g/ha,[19],100%
same,inhibition at 11210 g/ha,[20],100%
